# Test results as given in PubChem BioAssay (NCI).
#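 Method: 48-hour compound exposure of cells in 96-well plates, five concentrations, linear interpolation of endpoints. TGI: concentration producing complete growth inhibition.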
# Tests used:
# Assay in all cases: NCI anticancer screen, dose series, 48 h
# [1] = tested on: 786-0 renal
# [2] = tested on: A498 renal
# [3] = tested on: A549 NSCLC
# [4] = tested on: ACHN renal
# [5] = tested on: BT-549 breast
# [6] = tested on: CAKI-1 renal
# [7] = tested on: COLO 205 colon
# [8] = tested on: DU-145 prostate
# [9] = tested on: EKVX NSCLC
# [10] = tested on: HCC-2998 colon
# [11] = tested on: HCT-116 colon
# [12] = tested on: HCT-15 colon
# [13] = tested on: HOP-62 NSCLC
# [14] = tested on: HOP-92 NSCLC
# [15] = tested on: HS 578T breast
# [16] = tested on: HT29 colon
# [17] = tested on: IGROV1 ovarian
# [18] = tested on: K-562 leukemia
# [19] = tested on: KM12 colon
# [20] = tested on: LOX IMVI melanoma
# [21] = tested on: M14 melanoma
# [22] = tested on: MALME-3M melanoma
# [23] = tested on: MCF7 breast
# [24] = tested on: MDA-MB-231 breast
# [25] = tested on: MDA-MB-435
# [26] = tested on: MDA-N
# [27] = tested on: MOLT-4 leukemia
# [28] = tested on: NCI-H226 lung
# [29] = tested on: NCI-H23 lung
# [30] = tested on: NCI-H460 lung
# [31] = tested on: NCI-H522 lung
# [32] = tested on: NCI/ADR-RES ovarian
# [33] = tested on: OVCAR-3 ovarian
# [34] = tested on: OVCAR-4 ovarian
# [35] = tested on: OVCAR-5 ovarian
# [36] = tested on: OVCAR-8 ovarian
# [37] = tested on: PC-3 prostate
# [38] = tested on: RPMI-8226 leukemia
# [39] = tested on: RXF 393 renal
# [40] = tested on: SF-268 CNS
# [41] = tested on: SF-295 CNS
# [42] = tested on: SF-539 CNS
# [43] = tested on: SK-MEL-2 melanoma
# [44] = tested on: SK-MEL-28 melanoma
# [45] = tested on: SK-MEL-5 melanoma
# [46] = tested on: SK-OV-3 ovarian
# [47] = tested on: SN12C renal
# [48] = tested on: SNB-19 CNS
# [49] = tested on: SNB-75 CNS
# [50] = tested on: SR leukemia
# [51] = tested on: SW-620 colon
# [52] = tested on: T-47D breast
# [53] = tested on: TK-10 renal
# [54] = tested on: U251 CNS
# [55] = tested on: UACC-257 melanoma
# [56] = tested on: UACC-62 melanoma
# [57] = tested on: UO-31 renal
# [58] = tested on: CCRF-CEM leukemia
# [59] = tested on: HL-60(TB) leukemia
smiles,measurement,setting,value
CN(C)c1ccc(C(=C2C=CC(=[N+](C)C)C=C2)c2c(O)c(S(=O)(=O)[O-])cc3cc(S(=O)(=O)O)ccc23)cc1,TGI,[1],> 100 µM
same,TGI,[2],> 100 µM
same,TGI,[3],> 100 µM
same,TGI,[4],> 100 µM
same,TGI,[5],> 100 µM
same,TGI,[6],> 100 µM
same,TGI,[7],> 100 µM
same,TGI,[8],> 100 µM
same,TGI,[9],> 100 µM
same,TGI,[10],> 100 µM
same,TGI,[11],> 100 µM
same,TGI,[12],> 100 µM
same,TGI,[13],> 100 µM
same,TGI,[14],> 100 µM
same,TGI,[15],> 100 µM
same,TGI,[16],> 100 µM
same,TGI,[17],> 100 µM
same,TGI,[18],> 100 µM
same,TGI,[19],> 100 µM
same,TGI,[20],> 100 µM
same,TGI,[21],> 100 µM
same,TGI,[22],> 100 µM
same,TGI,[23],> 100 µM
same,TGI,[24],> 100 µM
same,TGI,[25],> 100 µM
same,TGI,[26],> 100 µM
same,TGI,[27],> 100 µM
same,TGI,[28],> 100 µM
same,TGI,[29],> 100 µM
same,TGI,[30],> 100 µM
same,TGI,[31],> 100 µM
same,TGI,[32],> 100 µM
same,TGI,[33],> 100 µM
same,TGI,[34],> 100 µM
same,TGI,[35],> 100 µM
same,TGI,[36],> 100 µM
same,TGI,[37],> 100 µM
same,TGI,[38],> 100 µM
same,TGI,[39],> 100 µM
same,TGI,[40],> 100 µM
same,TGI,[41],> 100 µM
same,TGI,[42],> 100 µM
same,TGI,[43],> 100 µM
same,TGI,[44],> 100 µM
same,TGI,[45],> 100 µM
same,TGI,[46],> 100 µM
same,TGI,[47],> 100 µM
same,TGI,[48],> 100 µM
same,TGI,[49],> 100 µM
same,TGI,[50],> 100 µM
same,TGI,[51],> 100 µM
same,TGI,[52],> 100 µM
same,TGI,[53],> 100 µM
same,TGI,[54],> 100 µM
same,TGI,[55],> 100 µM
same,TGI,[56],> 100 µM
same,TGI,[57],> 100 µM
CCOC(=O)n1c2ccccc2c2c(O)c(OC)c3c(c21)C(=O)NC3=O,TGI,[1],98.5 µM
same,TGI,[2],> 100 µM
same,TGI,[3],> 100 µM
same,TGI,[4],> 100 µM
same,TGI,[5],> 100 µM
same,TGI,[6],64.7 µM
same,TGI,[58],> 100 µM
same,TGI,[7],52.2 µM
same,TGI,[8],> 100 µM
same,TGI,[9],> 100 µM
same,TGI,[10],> 100 µM
same,TGI,[11],49 µM
same,TGI,[12],> 100 µM
same,TGI,[59],49.2 µM
same,TGI,[13],> 100 µM
same,TGI,[14],> 100 µM
same,TGI,[15],> 100 µM
same,TGI,[16],84.3 µM
same,TGI,[17],> 100 µM
same,TGI,[18],> 100 µM
same,TGI,[19],> 100 µM
same,TGI,[20],38.9 µM
same,TGI,[21],> 100 µM
same,TGI,[22],95.4 µM
same,TGI,[23],> 100 µM
same,TGI,[24],56.4 µM
same,TGI,[25],> 100 µM
same,TGI,[26],> 100 µM
same,TGI,[27],> 100 µM
same,TGI,[28],76.3 µM
same,TGI,[29],> 100 µM
same,TGI,[30],> 100 µM
same,TGI,[31],> 100 µM
same,TGI,[32],81.3 µM
same,TGI,[33],> 100 µM
same,TGI,[34],> 100 µM
same,TGI,[35],> 100 µM
same,TGI,[36],> 100 µM
same,TGI,[37],> 100 µM
same,TGI,[38],> 100 µM
same,TGI,[41],> 100 µM
same,TGI,[42],> 100 µM
same,TGI,[43],> 100 µM
same,TGI,[44],> 100 µM
same,TGI,[45],> 100 µM
same,TGI,[46],> 100 µM
same,TGI,[47],> 100 µM
same,TGI,[48],> 100 µM
same,TGI,[49],> 100 µM
same,TGI,[50],87.9 µM
same,TGI,[51],> 100 µM
same,TGI,[52],> 100 µM
same,TGI,[53],> 100 µM
same,TGI,[54],> 100 µM
same,TGI,[55],> 100 µM
same,TGI,[56],> 100 µM
same,TGI,[57],> 100 µM
